US20250197409A1, “BIFUNCTIONAL COMPOUND AND PHARMACEUTICAL COMPOSITION COMPRISING THE BIFUNCTIONAL COMPOUND, AND METHOD FOR TREATING ANDROGEN RECEPTOR RELATED DISEASE BY USING THE SAME” (ANHORN MEDICINES CO., LTD., priority 2022, published 2025)
Read-outs that look alike come from different tables or passages of the source.

Molecular target: T1, androgen receptor (Homo sapiens, UniProt P10275, T878A)
T1 construct: host or cells: LNCaP.FGC
Test: Androgen receptor degradation assay using Western blot analysis
Type: cell-based
Experimental: Cells not treated with any of the above-mentioned compounds are used as a negative control.
The internal loading control GAPDH was detected using a mouse monoclonal antibody (1:5000) (GTX627408, GeneTex International Corp., HsinChu City, Taiwan R.O.C.) and a goat anti-mouse HRP-conjugated secondary antibody (1:5000 dilution) (C04001, Croyez Bioscience Co., Ltd., Taipei City, Taiwan R.O.C.).
AR remaining percentage was determined by the intensity difference of AR signals (each was normalized by the corresponding internal loading control GAPDH) between the protein samples from the untreated cells (100%) and those from the treated cells. “Cpd. #” indicates the compound number hereinabove.
In addition, several compounds were selected to prepare a treatment stock solutions at 100 nM in RPMI medium. The treatment stock solutions were separately serially diluted (10×) with RPMI medium for treating LNCaP.FGC cells seeded with 2×10^5 cells per well in 24-well tissue culture plates. A calibration curve was determined by the serial diluted samples for each compound, and the concentration needed for 50% AR degradation (AR DC50) for each compound was calculated.

[1] = 24 h, read-out: Androgen Receptor Remaining (%), LNCaP.FGC cells, 100 nM, 24 hr, normalized to GAPDH, untreated cells = 100%
[2] = read-out: AR DC50 (concentration needed for 50% AR degradation); LNCaP.FGC cells, serial 10x dilutions from 100 nM
[3] = 24 h, LNCaP.FGC cells, 100 nM, 24 hr, normalized to GAPDH, untreated cells = 100%; read-out: Androgen Receptor Remaining (%)
[4] = LNCaP.FGC cells, serial 10x dilutions from 100 nM; read-out: AR DC50 (concentration needed for 50% AR degradation)

T1 sequence (P10275 whole entry T878A): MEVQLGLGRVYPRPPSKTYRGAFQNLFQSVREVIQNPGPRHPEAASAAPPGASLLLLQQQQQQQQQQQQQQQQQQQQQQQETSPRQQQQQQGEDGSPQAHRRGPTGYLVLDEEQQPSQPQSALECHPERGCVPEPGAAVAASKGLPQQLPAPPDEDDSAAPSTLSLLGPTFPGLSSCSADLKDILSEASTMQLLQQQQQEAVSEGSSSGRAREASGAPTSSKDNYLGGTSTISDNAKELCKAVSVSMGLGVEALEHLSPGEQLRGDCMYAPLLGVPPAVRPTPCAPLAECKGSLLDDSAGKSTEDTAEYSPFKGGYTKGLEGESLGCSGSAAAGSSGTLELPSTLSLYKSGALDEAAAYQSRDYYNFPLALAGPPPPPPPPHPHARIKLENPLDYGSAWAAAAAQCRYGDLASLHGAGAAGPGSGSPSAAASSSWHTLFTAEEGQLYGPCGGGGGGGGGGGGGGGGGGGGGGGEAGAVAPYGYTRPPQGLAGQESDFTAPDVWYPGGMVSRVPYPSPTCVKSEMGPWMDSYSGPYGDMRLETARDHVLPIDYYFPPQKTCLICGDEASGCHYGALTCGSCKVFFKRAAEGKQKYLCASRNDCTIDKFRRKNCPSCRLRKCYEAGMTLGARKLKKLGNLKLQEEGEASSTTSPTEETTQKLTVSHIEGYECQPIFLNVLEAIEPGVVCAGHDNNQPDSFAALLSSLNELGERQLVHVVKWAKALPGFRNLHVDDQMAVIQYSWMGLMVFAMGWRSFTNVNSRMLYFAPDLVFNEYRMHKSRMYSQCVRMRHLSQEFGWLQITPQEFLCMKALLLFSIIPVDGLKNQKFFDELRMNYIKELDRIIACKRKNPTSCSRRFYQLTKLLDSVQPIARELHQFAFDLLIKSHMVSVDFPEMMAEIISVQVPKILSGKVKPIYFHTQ
T1 sequence (Q96SW2 whole entry partner): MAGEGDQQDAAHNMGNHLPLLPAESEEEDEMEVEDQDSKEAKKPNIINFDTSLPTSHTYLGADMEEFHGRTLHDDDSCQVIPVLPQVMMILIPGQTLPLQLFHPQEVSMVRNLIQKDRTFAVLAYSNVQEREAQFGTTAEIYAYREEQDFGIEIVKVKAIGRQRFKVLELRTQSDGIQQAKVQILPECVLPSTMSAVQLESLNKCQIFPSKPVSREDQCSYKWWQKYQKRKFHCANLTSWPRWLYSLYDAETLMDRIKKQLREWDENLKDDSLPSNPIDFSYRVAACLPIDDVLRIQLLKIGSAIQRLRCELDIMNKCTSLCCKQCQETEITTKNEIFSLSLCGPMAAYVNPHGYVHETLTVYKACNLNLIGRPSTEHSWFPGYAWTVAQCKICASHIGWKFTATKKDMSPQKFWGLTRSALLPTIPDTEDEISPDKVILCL

| Compound | remaining activity at 0.1 µM [1] | DC50 [2] | other results |
| --- | --- | --- | --- |
| CCn1c2c(c3ccc(OCCN4CCC5(CC4)CN(c4ccc(C(=O)N[C@H]6C(C)(C)[C@H](Oc7ccc(C#N)c(Cl)c7)C6(C)C)nn4)C5)cc31)C(=O)N(C1CCC(=O)NC1=O)C2=O (some centres unmarked) [Compound 51] | 20% | 25 to 100 nM |  |
| CCn1c2c(c3ccc(OCCN4CCCN(c5ccc(C(=O)N[C@H]6CC[C@H](Oc7ccc(C#N)c(Cl)c7)CC6)nn5)CC4)cc31)C(=O)N(C1CCC(=O)NC1=O)C2=O (some centres unmarked) [Compound 52] | 42% | 10 to 25 nM |  |
| CCn1c2c(c3ccc(OCCN4CCCN(c5ccc(C(=O)N[C@H]6C(C)(C)[C@H](Oc7ccc(C#N)c(Cl)c7)C6(C)C)nn5)CC4)cc31)C(=O)N(C1CCC(=O)NC1=O)C2=O (some centres unmarked) [Compound 53] | 77% |  |  |
| CCn1c2c(c3ccc(OCCCN4CCCN(c5ccc(C(=O)N[C@H]6C(C)(C)[C@H](Oc7ccc(C#N)c(Cl)c7)C6(C)C)nn5)CC4)cc31)C(=O)N(C1CCC(=O)NC1=O)C2=O (some centres unmarked) [Compound 54] | 72% |  |  |
| CCn1c2c(c3ccc(OCCN4C[C@H](C)N(c5ccc(C(=O)N[C@H]6CC[C@H](Oc7ccc(C#N)c(Cl)c7)CC6)nn5)C[C@H]4C)cc31)C(=O)N(C1CCC(=O)NC1=O)C2=O (some centres unmarked) [Compound 55] | 40% | 25 to 100 nM |  |
| CCn1c2c(c3ccc(NC(=O)CN4CCN(c5ccc(C(=O)N[C@H]6C(C)(C)[C@H](Oc7ccc(C#N)c(Cl)c7)C6(C)C)cn5)CC4)cc31)C(=O)N(C1CCC(=O)NC1=O)C2=O (some centres unmarked) [Compound 56] | 4% | 25 to 100 nM |  |
| CCn1c2c(c3ccc(OCCN4CCN(c5ccc(C(=O)N[C@H]6CC[C@H](Oc7ccc(C#N)c(Cl)c7)CC6)nn5)[C@@H](C)C4)cc31)C(=O)N(C1CCC(=O)NC1=O)C2=O (some centres unmarked) [Compound 57] | 53% |  |  |
| CC[C@H]1CN(CCOc2ccc3c4c(n(CC)c3c2)C(=O)N(C2CCC(=O)NC2=O)C4=O)CCN1c1ccc(C(=O)N[C@H]2CC[C@H](Oc3ccc(C#N)c(Cl)c3)CC2)nn1 (some centres unmarked) [Compound 58] | 65% |  |  |
| CCn1c2c(c3ccc(OCCCN4C[C@H](C)N(c5ccc(C(=O)N[C@H]6CC[C@H](Oc7ccc(C#N)c(Cl)c7)CC6)nn5)C[C@H]4C)cc31)C(=O)N(C1CCC(=O)NC1=O)C2=O (some centres unmarked) [Compound 59] | 66% |  |  |
| CC[C@H]1CN(CCCOc2ccc3c4c(n(CC)c3c2)C(=O)N(C2CCC(=O)NC2=O)C4=O)CCN1c1ccc(C(=O)N[C@H]2CC[C@H](Oc3ccc(C#N)c(Cl)c3)CC2)nn1 (some centres unmarked) [Compound 60] | 57% |  |  |
| CCn1c2c(c3ccc(OCCCN4CCN(c5cnc(C(=O)N[C@H]6CC[C@H](Oc7ccc(C#N)c(Cl)c7)CC6)cn5)CC4)cc31)C(=O)N(C1CCC(=O)NC1=O)C2=O (some centres unmarked) [Compound 61] | 96% |  |  |
| CCn1c2c(c3ccc(OCCN4CCN(c5cnc(C(=O)N[C@H]6CC[C@H](Oc7ccc(C#N)c(Cl)c7)CC6)cn5)CC4)cc31)C(=O)N(C1CCC(=O)NC1=O)C2=O (some centres unmarked) [Compound 62] | 65% |  |  |
| CCn1c2c(c3ccc(OCCCN4CCN(c5ccc(C(=O)N[C@H]6CC[C@H](Oc7ccc(C#N)c(Cl)c7)CC6)nn5)CC4)cc31)C(=O)N([C@H]1CCC(=O)NC1=O)C2=O [Compound 63] |  | 10 to 25 nM |  |
| CCn1c2c(c3ccc(OCCN4C5CCC4CN(c4ccc(C(=O)N[C@H]6CC[C@H](Oc7ccc(C#N)c(Cl)c7)CC6)nn4)C5)cc31)C(=O)N(C1CCC(=O)NC1=O)C2=O (some centres unmarked) [Compound 64] | 40% | 25 to 100 nM |  |
| CCn1c2c(c3ccc(OCCCN4CCN(c5ccc(C(=O)N[C@H]6CC[C@H](Oc7ccc(C#N)c(Cl)c7)CC6)nn5)[C@@H](C)C4)cc31)C(=O)N(C1CCC(=O)NC1=O)C2=O (some centres unmarked) [Compound 65] | 32% | 25 to 100 nM |  |
| Cn1c2c(c3ccc(NC(=O)CN4CCN(c5ccc(C(=O)N[C@H]6CC[C@H](Oc7ccc(C#N)c(Cl)c7)CC6)cn5)CC4)cc31)C(=O)N(C1CCC(=O)NC1=O)C2=O (some centres unmarked) [Compound 66] |  |  | remaining activity at 0.1 µM [3]: 100% |
| Cn1c2c(c3ccc(NC(=O)CN4CCCN(c5ccc(C(=O)N[C@H]6CC[C@H](Oc7ccc(C#N)c(Cl)c7)CC6)nn5)CC4)cc31)C(=O)N(C1CCC(=O)NC1=O)C2=O (some centres unmarked) [Compound 68] |  |  | remaining activity at 0.1 µM [3]: 81% |
| Cn1c2c(c3ccc(NC(=O)CN4CCC5(CC4)CN(c4ccc(C(=O)N[C@H]6C(C)(C)[C@H](Oc7ccc(C#N)c(Cl)c7)C6(C)C)nn4)C5)cc31)C(=O)N(C1CCC(=O)NC1=O)C2=O (some centres unmarked) [Compound 69] |  |  | remaining activity at 0.1 µM [3]: 51% |
| CCn1c2c(c3ccc(OCCN4CC5CCC(C4)N5c4ccc(C(=O)N[C@H]5CC[C@H](Oc6ccc(C#N)c(Cl)c6)CC5)nn4)cc31)C(=O)N(C1CCC(=O)NC1=O)C2=O (some centres unmarked) [Compound 70] | 62% |  |  |

| Compound | remaining activity at 0.1 µM [1] | DC50 [2] | other results |
| --- | --- | --- | --- |
| CCn1c2c(c3ccc(OCCCN4CC5CCC(C4)N5c4ccc(C(=O)N[C@H]5CC[C@H](Oc6ccc(C#N)c(Cl)c6)CC5)nn4)cc31)C(=O)N(C1CCC(=O)NC1=O)C2=O (some centres unmarked) [Compound 71] | 77% |  |  |
| CCn1c2c(c3ccc(OCCCN4CC5(CCN(c6ccc(C(=O)N[C@H]7CC[C@H](Oc8ccc(C#N)c(Cl)c8)CC7)nn6)CC5)C4)cc31)C(=O)N(C1CCC(=O)NC1=O)C2=O (some centres unmarked) [Compound 72] |  | < 10 nM | Androgen Receptor Remaining (%) (LNCaP.FGC cells, 100 nM, 24 hr, normalized to GAPDH, untreated cells = 100%): 26% |
| CCn1c2c(c3ccc(OCCN4CCN(c5ccc(C(=O)N[C@H]6CC[C@H](Oc7ccc(C#N)c(Cl)c7)CC6)nn5)C[C@H]4C)cc31)C(=O)N(C1CCC(=O)NC1=O)C2=O (some centres unmarked) [Compound 73] | 41% | 25 to 100 nM |  |
| CCn1c2c(c3ccc(OCCCN4CCN(c5ccc(C(=O)N[C@H]6CC[C@H](Oc7ccc(C#N)c(Cl)c7)CC6)nn5)C[C@H]4C)cc31)C(=O)N(C1CCC(=O)NC1=O)C2=O (some centres unmarked) [Compound 74] | 40% | 25 to 100 nM |  |
| Cn1c2c(c3ccc(OCCN4CCCN(c5ccc(C(=O)N[C@H]6CC[C@H](Oc7ccc(C#N)c(Cl)c7)CC6)nn5)CC4)cc31)C(=O)N(C1CCC(=O)NC1=O)C2=O (some centres unmarked) [Compound 75] |  |  | remaining activity at 0.1 µM [3]: 26%; DC50 [4]: 10 to 25 nM |
| CCn1c2c(c3ccc(OCCCN4[C@H](C)CN(c5ccc(C(=O)N[C@H]6CC[C@H](Oc7ccc(C#N)c(Cl)c7)CC6)nn5)C[C@@H]4C)cc31)C(=O)N(C1CCC(=O)NC1=O)C2=O (some centres unmarked) [Compound 76] | 78% |  |  |
| CCn1c2c(c3ccc(OCCN4[C@H](C)CN(c5ccc(C(=O)N[C@H]6CC[C@H](Oc7ccc(C#N)c(Cl)c7)CC6)nn5)C[C@@H]4C)cc31)C(=O)N(C1CCC(=O)NC1=O)C2=O (some centres unmarked) [Compound 77] | 92% |  |  |
| CCn1c2c(c3ccc(OCCCN4CCN(c5ccc(C(=O)N[C@H]6CC[C@H](N(C)c7ccc(C#N)c(Cl)c7)CC6)nn5)CC4)cc31)C(=O)N(C1CCC(=O)NC1=O)C2=O (some centres unmarked) [Compound 78] | 57% | 10 to 25 nM |  |
| CCn1c2c(c3ccc(OCCN4CCN(c5ccc(C(=O)N[C@H]6CC[C@H](N(C)c7ccc(C#N)c(Cl)c7)CC6)nn5)CC4)cc31)C(=O)N(C1CCC(=O)NC1=O)C2=O (some centres unmarked) [Compound 79] | 60% |  |  |
| CCn1c2c(c3ccc(OCCN4CC5(CCN(c6ccc(C(=O)N[C@H]7CC[C@H](Oc8ccc(C#N)c(Cl)c8)CC7)nn6)CC5)C4)cc31)C(=O)N(C1CCC(=O)NC1=O)C2=O (some centres unmarked) [Compound 80] | 22% | 10 to 25 nM |  |
| CCn1c2c(c3ccc(OCCN4CCC5(CC4)CN(c4ccc(C(=O)N[C@H]6CC[C@H](Oc7ccc(C#N)c(Cl)c7)CC6)nn4)C5)cc31)C(=O)N(C1CCC(=O)NC1=O)C2=O (some centres unmarked) [Compound 81] | 9% | < 10 nM |  |
| N#Cc1ccc(O[C@H]2CC[C@H](NC(=O)c3ccc(N4CCN(CCCOc5ccc6c7c(n(CC(F)F)c6c5)C(=O)N(C5CCC(=O)NC5=O)C7=O)CC4)nn3)CC2)cc1Cl (some centres unmarked) [Compound 82] | 35% | 25 to 100 nM |  |
| CN(c1ccc(C#N)c(Cl)c1)[C@H]1CC[C@H](NC(=O)c2ccc(N3CCN(CCCOc4ccc5c6c(n(CC(F)F)c5c4)C(=O)N(C4CCC(=O)NC4=O)C6=O)CC3)nn2)CC1 (some centres unmarked) [Compound 83] | 41% | 10 to 25 nM |  |
| C[Si](C)(C)CCOCn1c2c(c3ccc(OCCCN4CCN(c5ccc(C(=O)N[C@H]6CC[C@H](Oc7ccc(C#N)c(Cl)c7)CC6)nn5)CC4)cc31)C(=O)N(C1CCC(=O)NC1=O)C2=O (some centres unmarked) [Compound 84] | 62% |  |  |
| N#Cc1ccc(O[C@H]2CC[C@H](NC(=O)c3ccc(N4CCN(CCCOc5ccc6c7c(n(CO)c6c5)C(=O)N(C5CCC(=O)NC5=O)C7=O)CC4)nn3)CC2)cc1Cl (some centres unmarked) [Compound 85] | 20% | 25 to 100 nM |  |
| N#Cc1ccc(O[C@H]2CC[C@H](NC(=O)c3ccc(N4CCN(CCCOc5ccc6c7c([nH]c6c5)C(=O)N(C5CCC(=O)NC5=O)C7=O)CC4)nn3)CC2)cc1Cl (some centres unmarked) [Compound 86] |  |  | remaining activity at 0.1 µM [3]: 20%; DC50 [4]: 25 to 100 nM |
| Cn1c2c(c3ccc(OCCCN4CCCN(c5ccc(C(=O)N[C@H]6CC[C@H](Oc7ccc(C#N)c(Cl)c7)CC6)nn5)CC4)cc31)C(=O)N(C1CCC(=O)NC1=O)C2=O (some centres unmarked) [Compound 87] |  |  | remaining activity at 0.1 µM [3]: 21%; DC50 [4]: 25 to 100 nM |
| Cn1c2c(c3ccc(OCCN4CCC5(CC4)CN(c4ccc(C(=O)N[C@H]6CC[C@H](Oc7ccc(C#N)c(Cl)c7)CC6)nn4)C5)cc31)C(=O)N(C1CCC(=O)NC1=O)C2=O (some centres unmarked) [Compound 88] |  |  | remaining activity at 0.1 µM [3]: 10%; DC50 [4]: 10 to 25 nM |
